Laboratory results taken from ChEMBL document CHEMBL1201862, “PubChem BioAssay data set” (2004).
Calls of active or inactive are those of the source.

How the values were obtained:
[1] = intracellular Trypanosoma cruzi inhibitors in host cells – cell-based, plate reader, cherry-pick samples, set 3, dose response (AID 651818); format: functional;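 also: compounds incubated with infected cells for about four days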
Aminopeptidase N = molecular target: T1, Aminopeptidase N (Plasmodium falciparum FcB1/Columbia, UniProt O96935); assay: malaria alanyl aminopeptidase activity blockers – biochemical, fluorogenic H-Leu-NHMec substrate, 1536-well (AID 1445); set-up: species or system Plasmodium falciparum 3D7, 3D7
T1 sequence (O96935 whole entry): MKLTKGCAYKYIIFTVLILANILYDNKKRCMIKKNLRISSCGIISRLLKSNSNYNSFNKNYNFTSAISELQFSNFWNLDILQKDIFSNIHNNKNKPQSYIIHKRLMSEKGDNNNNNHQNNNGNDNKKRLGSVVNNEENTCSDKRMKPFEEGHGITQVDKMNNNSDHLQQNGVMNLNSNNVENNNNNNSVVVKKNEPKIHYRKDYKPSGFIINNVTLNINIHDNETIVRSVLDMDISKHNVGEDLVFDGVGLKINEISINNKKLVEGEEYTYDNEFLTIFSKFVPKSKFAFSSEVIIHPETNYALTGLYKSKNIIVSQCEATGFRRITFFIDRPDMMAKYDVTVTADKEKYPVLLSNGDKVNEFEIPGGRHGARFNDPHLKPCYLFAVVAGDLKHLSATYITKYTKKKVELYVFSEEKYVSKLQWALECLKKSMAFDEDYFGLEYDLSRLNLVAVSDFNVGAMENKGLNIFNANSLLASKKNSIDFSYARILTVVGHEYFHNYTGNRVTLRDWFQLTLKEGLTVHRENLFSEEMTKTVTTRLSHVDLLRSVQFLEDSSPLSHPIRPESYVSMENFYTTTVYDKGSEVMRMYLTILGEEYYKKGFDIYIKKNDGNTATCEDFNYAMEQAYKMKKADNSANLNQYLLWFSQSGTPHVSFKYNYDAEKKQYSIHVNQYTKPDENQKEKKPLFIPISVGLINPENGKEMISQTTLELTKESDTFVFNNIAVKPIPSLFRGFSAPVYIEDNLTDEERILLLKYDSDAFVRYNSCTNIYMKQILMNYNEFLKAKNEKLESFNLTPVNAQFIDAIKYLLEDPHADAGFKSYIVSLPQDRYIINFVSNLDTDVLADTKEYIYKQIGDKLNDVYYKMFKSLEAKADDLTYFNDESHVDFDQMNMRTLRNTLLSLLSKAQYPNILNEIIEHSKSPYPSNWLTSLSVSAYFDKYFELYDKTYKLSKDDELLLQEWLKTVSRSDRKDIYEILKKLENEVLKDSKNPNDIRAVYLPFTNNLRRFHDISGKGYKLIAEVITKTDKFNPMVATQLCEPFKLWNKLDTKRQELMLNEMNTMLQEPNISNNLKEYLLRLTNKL

[2] = Luminescence Cell-Based Dose Response HTS to Identify Inhibitors of 5'UTR Stem-Loop Driven Prion Protein mRNA Translation in H4 Neuroglioblastoma Cells. [Related pubchem assays: 1827 (Project Summary), 1813 (Primary HTS)]; format: functional
[3] = alpha-synuclein stem-loop luciferase translation blockers – H4 neuroglioma cells, luminescence, confirmation (AID 1988); format: functional, cell-based
[4] = Trypanosoma cruzi growth suppression in host cells – NIH3T3 host cells, beta-gal luminescence, confirmation (AID 2044); format: functional, cell-based;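 also: intracellular parasites grown in NIH/3T3 mouse fibroblasts as host cells; luminescent beta-galactosidase reporter signal from transgenic T. cruzi replicating inside host cells; inhibitors lower the luminescence signal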
[5] = luciferase reporter signal suppression in cells – H4 neuroglioma cells, luminescence, dose response (AID 1990); format: functional, cell-based
[6] = HEK-293T viability loss after treatment – luminescence, T-cell screen hits, cytotoxicity control for TCR NF-kB inhibitor project, dose response (AID 489026); format: functional, cell-based;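 also: cells exposed to compound about 14 hours before the viability readout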
Paired box protein Pax-8 = Paired box protein Pax-8 (Homo sapiens, UniProt Q06710); assay: PAX8 transcriptional activity inhibition in RMG-I – RMG-I cells, luciferase, cherry-pick, dose response (AID 687027); format: functional, cell-based;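 also: luciferase reporter driven by Pax8 target thyroperoxidase promoter measured by SteadyGlo luminescence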
Sequence of Paired box protein Pax-8 (Q06710 whole entry): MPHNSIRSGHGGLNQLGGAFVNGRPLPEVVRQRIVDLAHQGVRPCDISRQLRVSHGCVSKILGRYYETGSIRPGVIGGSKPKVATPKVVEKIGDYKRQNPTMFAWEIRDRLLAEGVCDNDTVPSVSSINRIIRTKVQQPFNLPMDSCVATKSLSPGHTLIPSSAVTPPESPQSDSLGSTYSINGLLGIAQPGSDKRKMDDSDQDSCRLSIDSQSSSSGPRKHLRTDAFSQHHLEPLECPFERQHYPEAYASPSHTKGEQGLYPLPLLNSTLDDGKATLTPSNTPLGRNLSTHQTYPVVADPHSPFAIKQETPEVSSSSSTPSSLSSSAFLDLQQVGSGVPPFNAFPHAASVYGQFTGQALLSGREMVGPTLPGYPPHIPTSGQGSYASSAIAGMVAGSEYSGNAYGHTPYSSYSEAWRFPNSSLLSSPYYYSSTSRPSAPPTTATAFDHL

[7] = OVCAR8 cell viability loss – plate reader, dry powder samples, PAX8 project, dose response (AID 743197); format: functional, cell-based; details: OVCAR-8
cells [8] = format: functional, cell-based
Protein RecA = molecular target: T2, Protein RecA (Mycobacterium tuberculosis, UniProt P9WHJ3); assay: Fluorescence Cell-Free Homogeneous Dose Retest to Identify Inhibitors of RecA-Intein Splicing Activity. [Related pubchem assays (depositor defined):AID2097, AID2223, AID489010, AID492950]; format: functional
T2 sequence (P9WHJ3 whole entry): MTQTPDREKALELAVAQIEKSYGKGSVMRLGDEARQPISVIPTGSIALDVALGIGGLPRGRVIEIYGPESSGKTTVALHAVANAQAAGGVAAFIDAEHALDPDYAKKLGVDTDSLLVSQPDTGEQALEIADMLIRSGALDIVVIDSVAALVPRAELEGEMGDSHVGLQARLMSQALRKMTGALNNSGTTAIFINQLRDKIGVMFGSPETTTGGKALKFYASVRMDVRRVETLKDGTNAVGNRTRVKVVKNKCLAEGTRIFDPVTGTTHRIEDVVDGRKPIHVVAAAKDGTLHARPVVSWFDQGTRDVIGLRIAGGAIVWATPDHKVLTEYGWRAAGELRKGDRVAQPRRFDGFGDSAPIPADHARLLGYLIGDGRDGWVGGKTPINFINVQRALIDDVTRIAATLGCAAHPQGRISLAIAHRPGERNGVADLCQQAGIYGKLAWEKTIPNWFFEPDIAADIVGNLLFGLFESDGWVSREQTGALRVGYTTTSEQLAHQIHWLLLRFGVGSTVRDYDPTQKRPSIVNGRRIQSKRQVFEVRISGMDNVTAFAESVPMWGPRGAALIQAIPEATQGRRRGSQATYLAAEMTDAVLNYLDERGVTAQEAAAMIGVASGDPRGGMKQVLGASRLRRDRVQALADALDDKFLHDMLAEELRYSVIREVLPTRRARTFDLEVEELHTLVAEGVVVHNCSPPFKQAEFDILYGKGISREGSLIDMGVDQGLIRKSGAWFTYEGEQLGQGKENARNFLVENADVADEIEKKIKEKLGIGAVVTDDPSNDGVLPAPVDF

cells [9] = format: functional, cell-based; remark: listed apart in the source
[10] = molecular target: T3, Replicative DNA helicase DnaB (Mycobacterium tuberculosis, UniProt P9WMR3); assay: DnaB intein splicing inhibitors, dose response, biochemical, cell-free fluorescence (AID 449749); format: functional
T3 sequence (P9WMR3 whole entry): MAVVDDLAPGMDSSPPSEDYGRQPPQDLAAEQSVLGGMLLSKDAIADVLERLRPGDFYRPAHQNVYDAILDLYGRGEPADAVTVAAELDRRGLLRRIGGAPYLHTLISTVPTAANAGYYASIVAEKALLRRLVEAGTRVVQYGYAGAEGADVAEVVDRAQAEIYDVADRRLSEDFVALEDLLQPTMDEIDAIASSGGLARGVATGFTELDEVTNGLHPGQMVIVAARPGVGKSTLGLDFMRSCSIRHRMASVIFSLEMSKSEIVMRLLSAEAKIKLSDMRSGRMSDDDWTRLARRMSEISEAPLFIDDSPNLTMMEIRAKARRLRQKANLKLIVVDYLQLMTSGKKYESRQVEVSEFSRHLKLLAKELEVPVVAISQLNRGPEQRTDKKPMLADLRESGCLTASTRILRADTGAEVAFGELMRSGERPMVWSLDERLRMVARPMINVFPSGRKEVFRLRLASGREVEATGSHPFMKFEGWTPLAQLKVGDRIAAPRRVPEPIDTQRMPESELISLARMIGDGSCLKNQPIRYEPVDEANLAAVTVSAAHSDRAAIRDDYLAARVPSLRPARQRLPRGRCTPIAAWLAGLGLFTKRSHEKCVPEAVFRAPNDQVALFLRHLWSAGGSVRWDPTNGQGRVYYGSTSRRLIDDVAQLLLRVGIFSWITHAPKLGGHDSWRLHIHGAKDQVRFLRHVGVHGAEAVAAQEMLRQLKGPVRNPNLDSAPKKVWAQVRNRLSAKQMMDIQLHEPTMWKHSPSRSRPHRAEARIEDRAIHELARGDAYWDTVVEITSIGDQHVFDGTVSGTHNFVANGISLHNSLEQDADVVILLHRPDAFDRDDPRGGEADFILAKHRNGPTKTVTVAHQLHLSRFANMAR

C[C@@H]1CN([C@@H](C)CO)C(=O)c2cccc(NC(=O)C3CCCCC3)c2O[C@H]1CN(C)Cc1ccc(-c2ccccc2)cc1
AC50 [1]: 3.29 µM (active)

O=C(O)c1cccc(S(=O)(=O)Nc2ccc([N+](=O)[O-])cc2O)c1
IC50 (Aminopeptidase N): 66.2 µM (active)

Cc1c(C(=O)OCC(C)C)[nH]c2c1C(=O)CC(c1cccs1)C2 (centres undefined)
EC50 [2]: > 60 µM (not active)
EC50 [3]: 3.13 µM (active)
EC50 [4]: 4.91 µM (active)
EC50 [5]: 8.93 µM (inconclusive)
IC50 [6]: > 80 µM (inactive)

C[C@@H]1CN([C@@H](C)CO)C(=O)c2cccc(NC(=O)c3cnccn3)c2O[C@@H]1CN(C)Cc1ccc(C(=O)Nc2ccccc2N)cc1
AC50 [1]: 2.35 µM (active)

C[C@@H]1CN([C@H](C)CO)C(=O)c2cccc(NC(=O)c3ccncc3)c2O[C@@H]1CN(C)Cc1ccc(-c2ccccc2)cc1
AC50 [1]: 4.37 µM (active)

C[C@H]1CCCCO[C@H](CN(C)Cc2ccc(Cl)c(Cl)c2)[C@@H](C)CN([C@@H](C)CO)C(=O)c2cc(NC(=O)Nc3ccccc3)ccc2O1
AC50 (Paired box protein Pax-8): 13.1 µM (active)
AC50 [7]: > 70 µM (inactive)

COC(CN(C(=O)CCl)C(C(=O)NC1CCCCC1)c1ccc(Cl)cc1)OC (centres undefined)
EC50 (cells [8]): > 350 µM (not active)
EC50 (Protein RecA): 1.81 µM (active)
EC50 (cells [9]): > 350 µM (not active)
AC50 [10]: 15.8 µM (active)

C[C@@H]1CN([C@@H](C)CO)C(=O)Cc2cc(NC(=O)CCC(F)(F)F)ccc2O[C@@H]1CN(C)Cc1ccc(C(=O)Nc2ccccc2N)cc1
AC50 [1]: 2.67 µM (active)

C[C@@H]1CN([C@H](C)CO)C(=O)c2cc(NS(=O)(=O)c3ccccc3)ccc2O[C@@H](C)CCCCO[C@H]1CN(C)Cc1ccc(Cl)c(Cl)c1
AC50 (Paired box protein Pax-8): 9.93 µM (active)
AC50 [7]: 45 µM (active)

O=S(=O)(c1ccc2c(c1)OCCO2)N1CCC(n2nnc3cc(F)ccc32)CC1
IC50 (Aminopeptidase N): 8.18 µM (active)
